In US6949558B2, “Enhancement of taxane-based chemotherapy by a CDK1 antagonist” (Yale University, priority 2001, dated 2005):

Tests used:
[1] = test system: HT2-19 cells; experiment: Apoptosis and cell cycle in HT2-19 cells with conditional inactivation of p34^cdc2; format: cell-based; details: taxol 0.2 μM
Excerpt: (§1) Cell Cultures and Antibodies: Breast carcinoma MCF-7, prostate carcinoma PC3, and cervical carcinoma HeLa cells (American Type Culture Collection, Manassas, Va.) were maintained in culture according to the supplier's recommendations. HT2-19 cells with conditional inactivation of the p34^cdc2 gene were described previously (J. E. Itzhaki et al. (1997) Nat. Gen. 15: 258-265). In this cell line, removal of IPTG from the culture medium results in inactivation of the second p34^cdc2 allele (J. E. Itzhaki et al. (1997) Nat. Gen. 15: 258-265). For spindle checkpoint activation, the various cell types were treated with taxol (0.2-2 μM, Sigma Chemical Co., St. Louis, Mo.), vincristine (100 nM, Sigma) or cisplatin (3 μM, Sigma) for 16 h at 37° C. For genetic ablation of p34^cdc2, HT2-19 cells were washed and cultivated in the absence of IPTG for 48-72 h before analysis of apoptosis (see below) or expression of survivin or p34^cdc2, by Western blotting. In some experiments, taxol (0.2 μM) was added to HT2-19 cells simultaneously with the withdrawal of IPTG, and cells were processed as described above. […] For viral transduction, HT2-19 cells in the absence of IPTG were infected with pAd-GFP or pAd-Survivin at multiplicity of infection (m.o.i.) of 50, and analyzed after a 48-72 h culture for changes in cell cycle progression and apoptosis. […]

[2] = test system: MCF-7 cells; experiment: Apoptosis by DNA content analysis and flow cytometry in MCF-7 cells; format: cell-based, human
Method: Cervical carcinoma HeLa (functionally inactivated p53) cells or breast carcinoma MCF-7 (wild type p53) cells were plated at 50-60% confluency in C-6 wells. […]
(§2) After 4, 8, 16, and 32 hours of incubation, without removing taxol from the wells, purvalanol A was added at three increasing concentrations, 1, 10 and 20 uM (FIG. 1). A control was performed with addition of purvalanol A at the 0-h time point.
(§3) The cell populations were harvested at increasing time intervals from the 0-h time point or corresponding to the addition of purvalanol A. Apoptosis was analyzed by DNA content analysis and flow cytometry (DAPI staining).

[3] = test system: survivin expression in MCF-7 cells; experiment: Survivin expression by Western blotting in MCF-7 cells; format: cell-based, human; details: taxol 2 μM (FIG. 19A)
[4] = test system: survivin RNA in HeLa cells; experiment: Northern hybridization of survivin RNA in HeLa cells; format: cell-based, human; details: presence or absence of taxol
[5] = test system: HeLa cells; experiment: Apoptosis by DNA content analysis and flow cytometry in HeLa cells; format: cell-based, human; details: HeLa
Method: Cervical carcinoma HeLa (functionally inactivated p53) cells or breast carcinoma MCF-7 (wild type p53) cells were plated at 50-60% confluency in C-6 wells. Cells were treated with taxol at 0.2 μM for 0 to 32 hours in complete media.
as §2, §3

[6] = test system: p34^cdc2 kinase activity (MPM-2 epitope) in HeLa cells; experiment: MPM-2 mitotic phosphoepitope expression (p34^cdc2 kinase activity) in HeLa cells; format: cell-based, human; details: HeLa; taxol 0.2 μM, sustained for a 32-h culture
[7] = test system: survivin promoter; experiment: Survivin promoter-luciferase reporter expression in MCF-7 cells; format: cell-based, human; details: taxol 2 μM, all time intervals examined
Method: Luciferase activity was determined after 0-24 h incubation at 37° C. on a Lumat luminometer (LB9510), and normalized to β-galactosidase activity used as an internal control.
Luciferase values were normalized to β-galactosidase expression.

[8] = test system: survivin expression in HT2-19 cells; experiment: Survivin expression by Western blotting in HT2-19 cells; format: cell-based; details: taxol 0.2 μM
Excerpt: as §1

[9] = taxol 2 μM, adriamycin 100 nM, cis-platin 3 μM (Example 7)

With `CC(=O)O[C@H]1C(=O)[C@@]2(C)[C@H]([C@H](OC(=O)c3ccccc3)[C@]3(O)C[C@H](OC(=O)[C@H](O)[C@@H](NC(=O)c4ccccc4)c4ccccc4)C(C)=C1C3(C)C)[C@]1(OC(C)=O)CO[C@@H]1C[C@@H]2O` [taxol, Paclitaxel] the cell cycle arrest ([1]; HT2-19, p34^cdc2 +/− (IPTG present)) was “homogeneous mitotic arrest”, the “apoptosis vs untreated IPTG− cultures” value ([1]; IPTG− HT2-19 cells (p34^cdc2 −/−)) was “considerably increased apoptosis” and the “apoptosis (hypodiploid cell fraction)” value ([2]; taxol 0.2 μM for 0 to 32 hours) was “virtually no apoptosis”. For the same compound, the cell cycle arrest ([2]; taxol 0.2 μM for 0 to 32 hours) was “uniform M arrest”, the apoptosis [2, 9] was “negligible apoptosis” and the cell cycle arrest [2, 9] was “G2/M arrest”. The cell cycle arrest ([2]; taxol 0.2-2 μM (Example 8)) was “sustained (48-72 h) mitotic arrest”, the “increased expression of survivin” value [3] was 3-4 fold and the “survivin RNA levels” value [4] was “no significant changes in survivin RNA levels”. For the same compound, the “cell population with hypodiploid (apoptotic) DNA content / cell death” value ([5]; 16 h, taxol 0.2 μM, Purvalanol A 20 μM, alone or sequential) was 16%, the hypodiploid cells ([5]; taxol 0.2 μM alone (Example 1)) was about 10% and the “apoptosis (hypodiploid cell fraction)” value ([5]; taxol 0.2 μM for 0 to 32 hours) was “virtually no apoptosis”. The cell cycle arrest ([5]; taxol 0.2 μM or purvalanol A 1-20 uM alone (Examples 1, 2)) was “uniform M arrest”, the apoptosis ([5]; taxol 0.2 μM, up to 32 h (Example 8)) was “negligible induction of apoptosis” and the “p34^cdc2 kinase activity” value [6] was “elevated p34^cdc2 kinase activity”. The “survivin gene expression (promoter-luciferase)” value [7] was “significantly inhibited survivin gene expression”, the survivin expression ([8]; HT2-19 cells in the absence of IPTG (p34^cdc2 −/−)) was “only a minimally detectable increase in survivin expression” and the survivin levels ([8]; IPTG+ HT2-19 cells (p34^cdc2 +/−)) was “increased survivin levels”.
